Among the data in PubChem BioAssay (NCI) are TGI and GI50 values, retold here.

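Interpolation was linear, between the two tested concentrations surrounding the appropriate level; five concentrations were tested over 48 hours in 96-well plates. Here, GI50 denotes the concentration required for 50% inhibition of growth. TGI denotes the concentration required for complete inhibition of growth.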

Among the test systems are HT29 colon; SR leukemia; OVCAR-8 ovarian; MDA-MB-435; MDA-MB-231 breast; UO-31 renal; EKVX NSCLC; SNB-19 CNS; K-562 leukemia; HOP-92 NSCLC.
What all share (assay): inhibition of tumour cell growth, NCI panel, 48 h

On to `Cc1ccc(C(=O)OC[C@H]2CC[C@@H](n3cc(N(C)C4CCCCC4)c(=O)[nH]c3=O)O2)cc1`, for which the TGI was 37.8 µM in the assay with HT29 colon; more than 100 µM in the assay on SR leukemia; more than 100 µM in the assay with OVCAR-8 ovarian; more than 100 µM in the assay on MDA-MB-435; 41.3 µM in the assay on MDA-MB-231 breast; 62.7 µM in the assay with UO-31 renal. The results for the TGI in the assay with EKVX NSCLC, with SNB-19 CNS and in the assay on K-562 leukemia were more than 100 µM, 61.4 µM and more than 100 µM, respectively.
On to `CN(C)C(=S)N/N=C\C=N/NC(=S)N(C)C`, for which the TGI in the assay on HT29 colon, in the assay with OVCAR-8 ovarian, in the assay with HOP-92 NSCLC, in the assay with MDA-MB-435, with MDA-MB-231 breast and in the assay with UO-31 renal was more than 100 µM each time. In addition, the TGI with EKVX NSCLC, in the assay with SNB-19 CNS and in the assay with K-562 leukemia was more than 100 µM in each case.
In the case of `CCOC(=O)/C(=C\NCC(O)c1ccccc1)c1nc2ccccc2[nH]1` (stereo not drawn), the TGI with HT29 colon amounted to 56.7 µM; in the assay on SR leukemia, 42.7 µM; in the assay with OVCAR-8 ovarian it was 69.9 µM; with HOP-92 NSCLC it was 65.5 µM; with MDA-MB-435, 51.8 µM; with UO-31 renal, 94.4 µM. The TGI was 91.5 µM with EKVX NSCLC, more than 100 µM in the assay on SNB-19 CNS and 59.6 µM in the assay on K-562 leukemia.
Consider `CC(C)/C(Cl)=N/OC(=O)Nc1ccc(F)c(Cl)c1`, for which the TGI came to 13.3 µM with HT29 colon; 32.4 µM with OVCAR-8 ovarian; 3 µM in the assay with HOP-92 NSCLC; 23.4 µM in the assay on MDA-MB-435; 30.7 µM in the assay with MDA-MB-231 breast; 30.4 µM with UO-31 renal. Moreover, the TGI in the assay on EKVX NSCLC was 5.17 µM; in the assay on SNB-19 CNS it was 45.8 µM; in the assay on K-562 leukemia, more than 100 µM.
For `CCC1C(=O)C[C@H]2[C@@H]3C(O)CC4=CC(=O)CC[C@]4(C)[C@H]3CC[C@]12C` (stereo partly drawn), the TGI in the assay on HT29 colon, in the assay with OVCAR-8 ovarian, in the assay on HOP-92 NSCLC, in the assay with MDA-MB-435, in the assay on MDA-MB-231 breast and in the assay with UO-31 renal was more than 50 µM in each case. Moreover, the TGI with EKVX NSCLC, with SNB-19 CNS and with K-562 leukemia was more than 50 µM throughout.
`COc1cc(-c2nc3cc(F)ccc3s2)ccc1O`: the TGI is more than 100 µM in the assay with HT29 colon; 75.7 µM in the assay with SR leukemia; more than 100 µM in the assay with OVCAR-8 ovarian; more than 100 µM in the assay on MDA-MB-435; more than 100 µM in the assay on MDA-MB-231 breast; more than 100 µM with UO-31 renal. Moreover, the TGI with EKVX NSCLC was 53.5 µM; in the assay with SNB-19 CNS, more than 100 µM; in the assay on K-562 leukemia, more than 100 µM.
Turning to `COc1cc(OC)c2c(O)cc(CC(C)O)cc2c1` (stereo not drawn), the TGI in the assay with HT29 colon, in the assay on SR leukemia, in the assay with OVCAR-8 ovarian, in the assay with HOP-92 NSCLC, in the assay on UO-31 renal and in the assay with EKVX NSCLC was more than 100 µM in each case. Further, the TGI in the assay with SNB-19 CNS and with K-562 leukemia was more than 100 µM each time.
As to `CC1=NOC2(C1)/C(=N/O)CCC/C2=N\O` (stereo not drawn), the TGI in the assay on HT29 colon, with SR leukemia, with OVCAR-8 ovarian, in the assay with MDA-MB-435, in the assay on MDA-MB-231 breast and in the assay with UO-31 renal was more than 100 µM throughout. For the same compound, the TGI in the assay on EKVX NSCLC, with SNB-19 CNS and in the assay on K-562 leukemia was more than 100 µM in each case.
Turning to `COC1=CC(=O)c2ccccc2C1(CCC=C(C)C)C1=NC(C)(C)CO1` (stereo not drawn), the TGI with HT29 colon, with SR leukemia, in the assay with OVCAR-8 ovarian, in the assay on HOP-92 NSCLC, with UO-31 renal and with EKVX NSCLC was more than 100 µM throughout. Further, the TGI with SNB-19 CNS and with K-562 leukemia was more than 100 µM each time.
Consider `O=C(CSc1nc2ccccc2[nH]1)Nc1ccc(-c2nc3ccccc3s2)c(Cl)c1`, for which the GI50 is 4.79 µM in the assay with HT29 colon; 3.35 µM with OVCAR-8 ovarian; 3.89 µM in the assay with MDA-MB-435; 2.16 µM with UO-31 renal; 6.82 µM in the assay on EKVX NSCLC; 5.44 µM with SNB-19 CNS. For the same compound, the TGI in the assay on HT29 colon was more than 100 µM; with OVCAR-8 ovarian it was more than 100 µM; in the assay on MDA-MB-435, more than 100 µM; in the assay on UO-31 renal it was 13.7 µM; in the assay with EKVX NSCLC, more than 100 µM; in the assay with SNB-19 CNS it was 65.8 µM.
For `CCN(CC)Cc1nc2sc3c(c2c(=O)n1-c1ccccc1)CCCC3`, the TGI with HT29 colon was 29.3 µM; in the assay on SR leukemia, more than 100 µM; with OVCAR-8 ovarian it was 32.7 µM; in the assay with HOP-92 NSCLC, 51.4 µM; in the assay on MDA-MB-231 breast, 30.4 µM; in the assay with UO-31 renal it was 23.3 µM. In addition, the TGI in the assay on EKVX NSCLC is 79.9 µM; in the assay with SNB-19 CNS it was more than 100 µM; in the assay on K-562 leukemia, more than 100 µM.
Regarding `COC(=O)C12Oc3ccc(-c4ccc5c(c4O)C(=O)C4=CCC(C)C(O)C4(C(=O)OC)O5)c(O)c3C(=O)C1=CCC(C)C2O` (stereo not drawn), the TGI is 4.61 µM in the assay on HT29 colon; more than 100 µM with SR leukemia; 7.33 µM with OVCAR-8 ovarian; 3.21 µM in the assay on HOP-92 NSCLC; 2.79 µM in the assay with UO-31 renal; 4.97 µM in the assay on EKVX NSCLC. In addition, the TGI in the assay with K-562 leukemia was more than 30.6 µM.
For the compound `O=C1C(Br)=CC2([N+](=O)[O-])CCNc3c(O)c4c5c(c3C2=C1Br)=NCCC=5C=N4` (stereo not drawn), the TGI in the assay with HT29 colon turned out to be 7.24 µM; in the assay on OVCAR-8 ovarian, 2.38 µM; with HOP-92 NSCLC, 2.07 µM; with UO-31 renal, 22.9 µM; with EKVX NSCLC, 7.43 µM; with SNB-19 CNS it was 9.72 µM. Also, the TGI in the assay with K-562 leukemia came out at 2.33 µM.
On to `CCOC(=O)/C(O)=C1\C(=O)N(C)C(=O)C1c1ccc(OC)c(OC)c1` (stereo not drawn), for which the TGI with HT29 colon, in the assay with OVCAR-8 ovarian, with HOP-92 NSCLC, in the assay with UO-31 renal, in the assay with EKVX NSCLC and in the assay with SNB-19 CNS was more than 100 µM throughout. This compound showed a TGI in the assay on K-562 leukemia of more than 100 µM.
Take `Cc1cn(C2CC(n3cc(Cn4cc(F)c(=O)[nH]c4=O)nn3)C(CO)O2)c(=O)[nH]c1=O` (stereo not drawn): the TGI in the assay on OVCAR-8 ovarian, in the assay with HOP-92 NSCLC, in the assay with MDA-MB-435, in the assay with MDA-MB-231 breast, in the assay on UO-31 renal and in the assay on EKVX NSCLC was more than 100 µM throughout. Moreover, the TGI with SNB-19 CNS is more than 100 µM.
